Values joined by “and” are separate entries in the source; they are usually repeats but may differ in a detail not shown here. Equal entries are not always repeated. Where two headings read alike, the source gives them in different places.
Columns and labels:
[1] = test system: human osteosarcoma cell line SJSA-1; test: Inhibition of proliferation of human osteosarcoma cell line SJSA-1 (DAPI staining, In Cell Analyzer); conditions: Homo sapiens, SJSA-1, 72 h, read-out: IC50 (nM), inhibitory activity on proliferation of human osteosarcoma cell line SJSA-1, SJSA-1, incubated 72 h
[2] = target: T1, MDM2 (Homo sapiens, UniProt Q00987); test: Inhibition test of MDM2-P53 (GST-MDM2, Biotin-P53, Anti-GST-Tb, SA-XL665); assay type: binding
T1 construct: made in house
T1 sequence (Q00987 whole entry): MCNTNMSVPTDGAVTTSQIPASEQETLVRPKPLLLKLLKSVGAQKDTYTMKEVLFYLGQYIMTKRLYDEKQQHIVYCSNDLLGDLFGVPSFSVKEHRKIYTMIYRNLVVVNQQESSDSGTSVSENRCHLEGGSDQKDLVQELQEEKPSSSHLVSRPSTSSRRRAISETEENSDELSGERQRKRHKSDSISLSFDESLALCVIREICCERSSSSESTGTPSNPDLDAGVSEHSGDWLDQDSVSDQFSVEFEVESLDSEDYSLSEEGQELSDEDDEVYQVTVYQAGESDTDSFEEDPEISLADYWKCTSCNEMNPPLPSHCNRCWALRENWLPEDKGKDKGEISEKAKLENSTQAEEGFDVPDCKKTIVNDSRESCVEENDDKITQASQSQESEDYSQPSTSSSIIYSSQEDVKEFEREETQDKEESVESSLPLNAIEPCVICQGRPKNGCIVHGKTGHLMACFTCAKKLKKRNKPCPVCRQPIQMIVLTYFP
Summary of the method: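 Binding was measured by TR-FRET with GST-MDM2 at 4 nM final in PBS with 0.1% BSA, 5 mM DTT and 1 mM AEBSF. Compounds were tested as twelve-point 5-fold dilutions and incubated with the detection mix for 90 min at 25 °C with shaking before plate-reader reading and curve fitting.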

[3] = Pharmacokinetics in ICR mice after intravenous and intragastric administration; assay type: in vivo; conditions: for MRT last: read-out: MRT(0-t); for MRT inf: read-out: MRT(0-∞); for Vd: read-out: Vz; for bioavailability: PO 5 mg/kg vs IV 2 mg/kg, from mean values, read-out: F* (bioavailability)
Summary of the method: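 Male ICR mice (6-9 weeks, 20-30 g, n=3 per route) were fasted overnight and dosed at 2 mg/kg i.v. or 5 mg/kg intragastrically in 5% DMSO/40% PEG400/55% (10% HP-β-CD in saline). Plasma levels were measured by LC-MS/MS after protein precipitation (LLOQ 1 ng/mL), and non-compartmental PK parameters were calculated.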

[4] = ICR mice, IV 2 mg/kg, individual animal, 2 mg/kg
[5] = ICR mice, PO 5 mg/kg, individual animal, 5 mg/kg
[6] = male, ICR, mouse, plasma, iv, 2 mg/kg, ICR mice, IV 2 mg/kg, individual animal
[7] = male, ICR, mouse, plasma, iv, 2 mg/kg, ICR mice, IV 2 mg/kg, individual animal, read-out: AUC(0-t)
[8] = male, ICR, mouse, plasma, iv, 2 mg/kg, ICR mice, IV 2 mg/kg, individual animal, read-out: Cmax
[9] = male, ICR, mouse, plasma, iv, 2 mg/kg, ICR mice, IV 2 mg/kg, individual animal, read-out: Tmax
[10] = male, ICR, mouse, plasma, iv, 2 mg/kg, ICR mice, IV 2 mg/kg, individual animal, read-out: t1/2 (converted)
[11] = male, ICR, mouse, plasma, iv, 2 mg/kg, ICR mice, IV 2 mg/kg, mean of 3 animals
[12] = male, ICR, mouse, plasma, iv, 2 mg/kg, ICR mice, IV 2 mg/kg, mean of 3 animals, read-out: AUC(0-t)
[13] = male, ICR, mouse, plasma, iv, 2 mg/kg, ICR mice, IV 2 mg/kg, mean of 3 animals, read-out: Cmax
[14] = male, ICR, mouse, plasma, iv, 2 mg/kg, ICR mice, IV 2 mg/kg, mean of 3 animals, read-out: Tmax
[15] = male, ICR, mouse, plasma, iv, 2 mg/kg, ICR mice, IV 2 mg/kg, mean of 3 animals, read-out: t1/2 (converted)
[16] = male, ICR, mouse, plasma, po, 5 mg/kg, ICR mice, PO 5 mg/kg, individual animal
[17] = male, ICR, mouse, plasma, po, 5 mg/kg, ICR mice, PO 5 mg/kg, individual animal, read-out: AUC(0-t)
[18] = male, ICR, mouse, plasma, po, 5 mg/kg, ICR mice, PO 5 mg/kg, individual animal, read-out: Cmax
[19] = male, ICR, mouse, plasma, po, 5 mg/kg, ICR mice, PO 5 mg/kg, individual animal, read-out: Tmax
[20] = male, ICR, mouse, plasma, po, 5 mg/kg, ICR mice, PO 5 mg/kg, individual animal, read-out: t1/2 (converted)
[21] = male, ICR, mouse, plasma, po, 5 mg/kg, ICR mice, PO 5 mg/kg, mean of 3 animals
[22] = male, ICR, mouse, plasma, po, 5 mg/kg, ICR mice, PO 5 mg/kg, mean of 3 animals, read-out: AUC(0-t)
[23] = male, ICR, mouse, plasma, po, 5 mg/kg, ICR mice, PO 5 mg/kg, mean of 3 animals, read-out: Cmax
[24] = male, ICR, mouse, plasma, po, 5 mg/kg, ICR mice, PO 5 mg/kg, mean of 3 animals, read-out: Tmax
[25] = male, ICR, mouse, plasma, po, 5 mg/kg, ICR mice, PO 5 mg/kg, mean of 3 animals, read-out: t1/2 (converted)
[26] = male, ICR, mouse, plasma, po, 5 mg/kg, oral intragastric administration 5 mg/kg, read-out: AUC0-t
[27] = male, ICR, mouse, plasma, po, 5 mg/kg, oral intragastric administration 5 mg/kg, read-out: half-life (converted)

COc1nc(C2CC2)ncc1-c1nc2c(n1C(C)C)[C@@]1(C(=O)Nc3cc(Cl)ccc31)N(c1cc(Cl)ccc1C)C2=O [Example S-121, (S)-6-chloro-5′-(5-chloro-2-methylphenyl)-2′-(2-cyclopropyl-4-methoxypyrimidin-5-yl)-3′-isopropyl-3′H-spiro[dihydroindole-3,4′-pyrrolo[3,4-d]imidazole]-2,6′(5′H)-dione]
IC50 [1]: 67 nM | IC50 [2]: 3.35 nM | AUC(0-t) [3, 4]: 26953.62 ng·h/mL and 24572.30 ng·h/mL | AUC(0-∞) [3, 4]: 27749.72 ng·h/mL and 25488.79 ng·h/mL | CL [3, 4]: 1.20 mL/min/kg and 1.31 mL/min/kg | Cmax [3, 4]: 3576.94 ng/mL and 3887.60 ng/mL | MRT(0-t) [3, 4]: 5.04 h and 5.26 h | MRT(0-∞) [3, 4]: 5.79 h and 6.22 h | Vz [3, 4]: 0.53 L/kg and 0.62 L/kg | t1/2 [3, 4]: 5.09 h and 5.50 h | AUC(0-t) [3, 5]: 43063.09 ng·h/mL and 40782.54 ng·h/mL | AUC(0-∞) [3, 5]: 43407.01 ng·h/mL and 41032.91 ng·h/mL | Cmax [3, 5]: 4835.52 ng/mL and 4714.57 ng/mL | MRT(0-t) [3, 5]: 5.27 h and 5.40 h | MRT(0-∞) [3, 5]: 5.45 h and 5.54 h | Tmax [3, 5]: 4.00 h | t1/2 [3, 5]: 3.34 h and 3.14 h | AUC(0-inf) [3, 6]: 29400 ng·h/mL | clearance [3, 6]: 1.14 mL/min/kg | AUC(0-t) [3, 7]: 28400 ng·h/mL | Cmax [3, 8]: 3350 ng/mL | MRT last [3, 6]: 5.15 h | MRT inf [3, 6]: 6.03 h | Tmax [3, 9]: 0.08 h | Vd [3, 6]: 0.52 L/kg | half-life [3, 10]: 315 min | AUC(0-inf) [3, 11]: 27500 ng·h/mL | clearance [3, 11]: 1.21 mL/min/kg | AUC(0-t) [3, 12]: 26600 ng·h/mL | Cmax [3, 13]: 3600 ng/mL | MRT last [3, 11]: 5.15 h | MRT inf [3, 11]: 6.01 h | Tmax [3, 14]: 0.083 h | Vd [3, 11]: 0.56 L/kg | half-life [3, 15]: 317 min | AUC(0-inf) [3, 16]: 40300 ng·h/mL | AUC(0-t) [3, 17]: 40100 ng·h/mL | Cmax [3, 18]: 4920 ng/mL | MRT last [3, 16]: 4.96 h | MRT inf [3, 16]: 5.08 h | Tmax [3, 19]: 2 h | half-life [3, 20]: 185 min | AUC(0-inf) [3, 21]: 41600 ng·h/mL | AUC(0-t) [3, 22]: 41300 ng·h/mL | Cmax [3, 23]: 4820 ng/mL | MRT last [3, 21]: 5.21 h | MRT inf [3, 21]: 5.36 h | Tmax [3, 24]: 3.33 h | half-life [3, 25]: 191 min | AUC(0-t) [3, 26]: 41300 ng·h/mL | half-life [3, 27]: 191 min | bioavailability ([3]; male, mouse, plasma, ICR mice): 62%

COc1cc(OC)c(-c2nc3c(n2C(C)C)[C@@]2(C(=O)Nc4cc(Cl)ccc42)N(c2cc(Cl)cnc2C)C3=O)cn1 [Example S-131, (S)-6-chloro-5′-(5-chloro-2-methylpyridin-3-yl)-2′-(4,6-dimethoxypyridin-3-yl)-3′-isopropyl-3′H-spiro[dihydroindole-3,4′-pyrrolo[3,4-d]imidazole]-2,6′(5′H)-dione]
IC50 [1]: 46.3 nM | IC50 [2]: 1.17 nM | AUC(0-t) [3, 4]: 1579.23 ng·h/mL and 1776.79 ng·h/mL | AUC(0-∞) [3, 4]: 1594.10 ng·h/mL and 1788.59 ng·h/mL | CL [3, 4]: 20.91 mL/min/kg and 18.64 mL/min/kg | Cmax [3, 4]: 2021.33 ng/mL and 1997.01 ng/mL | MRT(0-t) [3, 4]: 0.90 h and 0.94 h | MRT(0-∞) [3, 4]: 0.96 h and 0.98 h | Vz [3, 4]: 1.78 L/kg and 1.45 L/kg | t1/2 [3, 4]: 0.98 h and 0.90 h | AUC(0-t) [3, 5]: 5902.77 ng·h/mL and 6839.45 ng·h/mL | AUC(0-∞) [3, 5]: 6003.28 ng·h/mL and 7052.50 ng·h/mL | Cmax [3, 5]: 1853.01 ng/mL and 1794.96 ng/mL | MRT(0-t) [3, 5]: 2.27 h and 2.45 h | MRT(0-∞) [3, 5]: 2.40 h and 2.68 h | t1/2 [3, 5]: 1.28 h and 1.47 h | AUC(0-inf) [3, 6]: 1260 ng·h/mL | clearance [3, 6]: 26.4 mL/min/kg | AUC(0-t) [3, 7]: 1260 ng·h/mL | Cmax [3, 8]: 1780 ng/mL | MRT last [3, 6]: 0.71 h | MRT inf [3, 6]: 0.73 h | Tmax [3, 9]: 0.08 h | Vd [3, 6]: 1.73 L/kg | half-life [3, 10]: 45.6 min | AUC(0-inf) [3, 11]: 1550 ng·h/mL | clearance [3, 11]: 22 mL/min/kg | AUC(0-t) [3, 12]: 1540 ng·h/mL | Cmax [3, 13]: 1930 ng/mL | MRT last [3, 11]: 0.85 h | MRT inf [3, 11]: 0.89 h | Tmax [3, 14]: 0.083 h | Vd [3, 11]: 1.65 L/kg | half-life [3, 15]: 52.8 min | AUC(0-inf) [3, 16]: 3770 ng·h/mL | AUC(0-t) [3, 17]: 3740 ng·h/mL | Cmax [3, 18]: 1440 ng/mL | MRT last [3, 16]: 1.9 h | MRT inf [3, 16]: 1.95 h | Tmax [3, 19]: 1 h | half-life [3, 20]: 61.8 min | AUC(0-inf) [3, 21]: 5610 ng·h/mL | AUC(0-t) [3, 22]: 5500 ng·h/mL | Cmax [3, 23]: 1700 ng/mL | MRT last [3, 21]: 2.21 h | MRT inf [3, 21]: 2.34 h | Tmax [3, 24]: 1 h | half-life [3, 25]: 75.6 min | AUC(0-t) [3, 26]: 5500 ng·h/mL | half-life [3, 27]: 75.6 min | bioavailability ([3]; male, mouse, plasma, ICR mice): 143%
